Consider 18 molecules from US20260285888A1, “HETEROCYCLIC COMPOUND AND USE THEREOF” (OTSUKA PHARMACEUTICAL CO., LTD., priority 2023, published 2026).

The structures appear in SMILES notation.

Series [1] can be described thus: Study for confirmation of conversion to brexpiprazole in a buffer (stability of the evaluation compounds). In kind it is physicochemical. The settings on record: in buffer, average of duplicate; for Concentration of brexpiprazole formed: 60-minute reaction sample; for Concentration of evaluation compound decreased: decrease in 60-minute vs 0-minute reaction sample. In outline: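 Compounds (final 1 μmol/L, from 100 μmol/L working solutions) incubated in buffer at 37° C. for 0 or 60 min, in duplicate, after 3 min pre-incubation of the reaction solution. Reactions stopped with acetonitrile/isopropanol (4:1) containing internal standards; compound and formed brexpiprazole quantified against 0.01–1 μmol/L calibration samples.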

The next series in a line: in vitro. The series is classed as cell-based, human. The settings on record: human, differentiated hl-60 cells, 300 μmol/L, about 24 hours, PMA-differentiated HL-60 cells, LDH; no-treatment 0%, cell lysis buffer 100%; read-out: cytotoxicity (%) Evaluation compound results. In outline: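 Cytotoxicity (%) from supernatant LDH activity after ~24 h treatment at 300 μmol/L final, normalised to no-treatment (0%) and lysis buffer (100%). Cells were PMA-differentiated (10 nM, ~72 h) HL-60 in 2% FBS medium; triplicate means.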

With `CCOC(=O)[C@H](C)OP(=O)([O-])OC[N+]1(CCCCOc2ccc3ccc(=O)[nH]c3c2)CCN(c2cccc3sccc23)CC1` [EX 104, (S)-(4-(benzo[b]thiophen-4-yl)-1-(4-((2-oxo-1,2-dihydroquinolin-7-yl)oxy)butyl)piperazin-1-ium-1-yl)methyl (1-ethoxy-1-oxopropan-2-yl) phosphate], in series [1], the “Concentration of brexpiprazole formed” value turned out to be 0 nM and the “Concentration of evaluation compound decreased” value came to 200 nM. For the same molecule, in the series “in vitro”, the cytotoxicity at 24 h, 300 µM was -5%.
On the same counts, the results for `O=c1ccc2ccc(OCCCC[N+]3(COP(=O)([O-])OCCCCO)CCN(c4cccc5sccc45)CC3)cc2[nH]1` [EX 10, (4-(benzo[b]thiophen-4-yl)-1-(4-((2-oxo-1,2-dihydroquinolin-7-yl)oxy)butyl)piperazin-1-ium-1-yl)methyl (4-hydroxybutyl) phosphate] are 0 nM, -20 nM and -6%.
On to `O=C(OCOP(=O)([O-])OC[N+]1(CCCCOc2ccc3ccc(=O)[nH]c3c2)CCN(c2cccc3sccc23)CC1)C1CCOCC1` [EX 127, (4-(benzo[b]thiophen-4-yl)-1-(4-((2-oxo-1,2-dihydroquinolin-7-yl)oxy)butyl)piperazin-1-ium-1-yl)methyl (((tetrahydro-2H-pyran-4-carbonyl)oxy)methyl) phosphate], for which, in series [1], the “Concentration of brexpiprazole formed” value stood at 0 nM and the “Concentration of evaluation compound decreased” value stood at 40 nM. Besides, in “in vitro”, the cytotoxicity at 24 h, 300 µM turned out to be 0%.
In the case of `CC1(C)OCC(NC(=O)CCCC(=O)OCOP(=O)([O-])OC[N+]2(CCCCOc3ccc4ccc(=O)[nH]c4c3)CCN(c3cccc4sccc34)CC2)CO1` [EX 74, (4-(benzo[b]thiophen-4-yl)-1-(4-((2-oxo-1,2-dihydroquinolin-7-yl)oxy)butyl)piperazin-1-ium-1-yl)methyl (((5-((2.2-dimethyl-1,3-dioxan-5-yl)amino)-5-oxopentanoyl)oxy)methyl) phosphate], in series [1], the “Concentration of brexpiprazole formed” value came to 0 nM and the “Concentration of evaluation compound decreased” value amounted to 50 nM. In addition, the cytotoxicity at 24 h, 300 µM in “in vitro” was -1%.
On the same counts, the results for `CCOC(=O)CCOC(=O)OCOP(=O)([O-])OC[N+]1(CCCCOc2ccc3ccc(=O)[nH]c3c2)CCN(c2cccc3sccc23)CC1` [EX 143, (4-(benzo[b]thiophen-4-yl)-1-(4-((2-oxo-1,2-dihydroquinolin-7-yl)oxy)butyl)piperazin-1-ium-1-yl)methyl ((((3-ethoxy-3-oxopropoxy)carbonyl)oxy)methyl) phosphate] are 0 nM, 50 nM and -5%.
Consider `O=c1ccc2ccc(OCCCC[N+]3(COP(=O)([O-])OC/C=C\CO)CCN(c4cccc5sccc45)CC3)cc2[nH]1` [EX 43, (Z)-(4-(benzo[b]thiophen-4-yl)-1-(4-((2-oxo-1,2-dihydroquinolin-7-yl)oxy)butyl)piperazin-1-ium-1-yl)methyl (4-hydroxybut-2-en-1-yl) phosphate], for which, in series [1], the “Concentration of brexpiprazole formed” value is 0 nM and the “Concentration of evaluation compound decreased” value was 120 nM. In the series “in vitro”, the cytotoxicity at 24 h, 300 µM was -6%.
As for `CC1(C)OCC(COP(=O)([O-])OC[N+]2(CCCCOc3ccc4ccc(=O)[nH]c4c3)CCN(c3cccc4sccc34)CC2)CO1` [EX 55, (4-(benzo[b]thiophen-4-yl)-1-(4-((2-oxo-1,2-dihydroquinolin-7-yl)oxy)butyl)piperazin-1-ium-1-yl)methyl ((2,2-dimethyl-1,3-dioxan-5-yl)methyl) phosphate], in series [1], the “Concentration of brexpiprazole formed” value amounted to 0 nM and the “Concentration of evaluation compound decreased” value is 70 nM. In addition, the cytotoxicity at 24 h, 300 µM in “in vitro” was -7%.
On to `CCOCCCOP(=O)([O-])OC[N+]1(CCCCOc2ccc3ccc(=O)[nH]c3c2)CCN(c2cccc3sccc23)CC1` [EX 97, (4-(benzo[b]thiophen-4-yl)-1-(4-((2-oxo-1.2-dihydroquinolin-7-yl)oxy)butyl)piperazin-1-ium-1-yl)methyl (3-ethoxypropyl) phosphate], for which, in series [1], the “Concentration of brexpiprazole formed” value came out at 0 nM and the “Concentration of evaluation compound decreased” value is 90 nM. For the same molecule, in “in vitro”, the cytotoxicity at 24 h, 300 µM was -2%.
As to `O=C(OCOP(=O)([O-])OC[N+]1(CCCCOc2ccc3ccc(=O)[nH]c3c2)CCN(c2cccc3sccc23)CC1)OC1CCOCC1` [EX 141, (4-(benzo[b]thiophen-4-yl)-1-(4-((2-oxo-1,2-dihydroquinolin-7-yl)oxy)butyl)piperazin-1-ium-1-yl)methyl (((((tetrahydro-2H-pyran-4-yl)oxy)carbonyl)oxy)methyl) phosphate], in series [1], the “Concentration of brexpiprazole formed” value was 0 nM and the “Concentration of evaluation compound decreased” value was determined as 20 nM. The cytotoxicity at 24 h, 300 µM in the series “in vitro” came to 19%.
On the same counts, the results for `CC(C)(C)C(=O)OP(=O)([O-])OC[N+]1(CCCCOc2ccc3ccc(=O)[nH]c3c2)CCN(c2cccc3sccc23)CC1` [EX 150, (4-(benzothiophen-4-yl)-1-(4-((2-oxo-1H-quinolin-7-yl)oxy)butyl)piperazin-1-ium-1-yl)methyl 2,2-dimethylpropanoyl phosphate] are 0 nM, 110 nM and 10%.
The corresponding values for `O=c1ccc2ccc(OCCCC[N+]3(COP(=O)([O-])OCCCCCCCBr)CCN(c4cccc5sccc45)CC3)cc2[nH]1` [EX 64, (4-(benzo[b]thiophen-4-yl)-1-(4-((2-oxo-1,2-dihydroquinolin-7-yl)oxy)butyl)piperazin-1-ium-1-yl)methyl (7-bromoheptyl) phosphate] are 0 nM, 30 nM and 9%.
The corresponding values for `CC(C)OCCOCCOCCOC(=O)OCOP(=O)([O-])OC[N+]1(CCCCOc2ccc3ccc(=O)[nH]c3c2)CCN(c2cccc3sccc23)CC1` [EX 137, (4-(benzo[b]thiophen-4-yl)-1-(4-((2-oxo-1,2-dihydroquinolin-7-yl)oxy)butyl)piperazin-1-ium-1-yl)methyl (14-methyl-3-oxo-2,4,7,10,13-pentaoxapentadecyl) phosphate] are 0 nM, 90 nM and -8%.
Regarding `CC(C)(CC(=O)O)CC(=O)OCOP(=O)([O-])OC[N+]1(CCCCOc2ccc3ccc(=O)[nH]c3c2)CCN(c2cccc3sccc23)CC1` [EX 71], in series [1], the “Concentration of brexpiprazole formed” value came to 0 nM and the “Concentration of evaluation compound decreased” value was found to be 100 nM. For the same molecule, the cytotoxicity at 24 h, 300 µM in the series “in vitro” was -9%.
`C[C@@H](OP(=O)([O-])OC[N+]1(CCCCOc2ccc3ccc(=O)[nH]c3c2)CCN(c2cccc3sccc23)CC1)C(=O)OC(C)(C)C` [EX 106, (R)-(4-(benzo[b]thiophen-4-yl)-1-(4-((2-oxo-1.2-dihydroquinolin-7-yl)oxy)butyl)piperazin-1-ium-1-yl)methyl (1-(tert-butoxy)-1-oxopropan-2-yl) phosphate]: in series [1], the “Concentration of brexpiprazole formed” value stood at 0 nM and the “Concentration of evaluation compound decreased” value was 70 nM. The cytotoxicity at 24 h, 300 µM in “in vitro” came to 10%.
Consider `O=C(O)CCCCCOC(=O)OCOP(=O)([O-])OC[N+]1(CCCCOc2ccc3ccc(=O)[nH]c3c2)CCN(c2cccc3sccc23)CC1` [EX 145, (4-(benzo[b]thiophen-4-yl)-1-(4-((2-oxo-1,2-dihydroquinolin-7-yl)oxy)butyl)piperazin-1-ium-1-yl)methyl (((((5-carboxypentyl)oxy)carbonyl)oxy)methyl) phosphate], for which, in series [1], the “Concentration of brexpiprazole formed” value came out at 0 nM and the “Concentration of evaluation compound decreased” value came out at 30 nM. For the same molecule, the cytotoxicity at 24 h, 300 µM in the series “in vitro” is -9%.
The corresponding values for `O=C(OCOP(=O)([O-])OC[N+]1(CCCCOc2ccc3ccc(=O)[nH]c3c2)CCN(c2cccc3sccc23)CC1)N1CCOCC1` [EX 160, (4-(benzo[b]thiophen-4-yl)-1-(4-((2-oxo-1,2-dihydroquinolin-7-yl)oxy)butyl)piperazin-1-ium-1-yl)methyl (((morpholine-4-carbonyl)oxy)methyl) phosphate] are 0 nM, -10 nM and 9%.
The corresponding values for `CC(C)OC(=O)OCOP(=O)([O-])OC[N+]1(CCCCOc2ccc3ccc(=O)[nH]c3c2)CCN(c2cccc3sccc23)CC1` [EX 130, (4-(benzo[b]thiophen-4-yl)-1-(4-((2-oxo-1,2-dihydroquinolin-7-yl)oxy)butyl)piperazin-1-ium-1-yl)methyl (isopropoxycarbonyl)oxy)methyl) phosphate] are 0 nM, -20 nM and 1%.
The corresponding values for `O=C(OCCCN1CCOCC1)OCOP(=O)([O-])OC[N+]1(CCCCOc2ccc3ccc(=O)[nH]c3c2)CCN(c2cccc3sccc23)CC1` [EX 146, (4-(Benzo[b]thiophen-4-yl)-1-(4-((2-oxo-1,2-dihydroquinolin-7-yl)oxy)butyl)piperazin-1-ium-1-yl)methyl ((((3-morpholinopropoxy)carbonyl)oxy)methyl) phosphate] are 0 nM, 110 nM and 1%.
